{"source": "ChEMBL document CHEMBL1133146", "about": "“Potent nonpeptide endothelin antagonists: synthesis and structure-activity relationships of pyrazole-5-carboxylic acids” (Bioorg Med Chem Lett, 2000)", "key": {"[1]": {"target": "T1, Endothelin receptor type B (Rattus norvegicus, UniProt P21451)", "T1 sequence (P21451 whole entry)": "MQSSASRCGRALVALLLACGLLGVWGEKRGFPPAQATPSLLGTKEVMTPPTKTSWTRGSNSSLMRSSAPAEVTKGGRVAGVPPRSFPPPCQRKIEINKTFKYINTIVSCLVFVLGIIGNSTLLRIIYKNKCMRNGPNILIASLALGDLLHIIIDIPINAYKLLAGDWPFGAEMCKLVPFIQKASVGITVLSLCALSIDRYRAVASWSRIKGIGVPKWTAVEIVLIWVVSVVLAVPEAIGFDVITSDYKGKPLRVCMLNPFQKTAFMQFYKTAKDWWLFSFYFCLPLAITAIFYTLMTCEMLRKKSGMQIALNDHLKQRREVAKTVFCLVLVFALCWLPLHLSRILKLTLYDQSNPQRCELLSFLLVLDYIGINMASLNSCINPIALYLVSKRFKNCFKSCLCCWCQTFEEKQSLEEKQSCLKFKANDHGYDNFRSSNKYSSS", "experiment": "In vitro binding affinity to endothelin B receptor in rat cerebellum", "type": "tissue-based"}, "Endothelin-1 receptor": {"target": "T2, Endothelin-1 receptor (Rattus norvegicus, UniProt P26684)", "T2 sequence (P26684 whole entry)": "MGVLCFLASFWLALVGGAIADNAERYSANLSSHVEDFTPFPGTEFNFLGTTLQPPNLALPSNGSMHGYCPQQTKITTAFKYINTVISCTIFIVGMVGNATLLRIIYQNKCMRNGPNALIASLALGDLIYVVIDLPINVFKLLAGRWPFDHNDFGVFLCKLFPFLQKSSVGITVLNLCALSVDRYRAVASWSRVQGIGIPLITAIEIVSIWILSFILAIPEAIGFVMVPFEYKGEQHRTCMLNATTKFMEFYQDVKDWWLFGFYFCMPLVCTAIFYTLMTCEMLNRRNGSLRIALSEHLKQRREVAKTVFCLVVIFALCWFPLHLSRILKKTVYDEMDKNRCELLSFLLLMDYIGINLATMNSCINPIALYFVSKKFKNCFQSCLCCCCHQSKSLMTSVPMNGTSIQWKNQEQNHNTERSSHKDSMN", "experiment": "In vitro binding affinity to endothelin A receptor in rat heart ventricles"}, "[2]": {"system": "Endothelin receptor ET-A/ET-B (Rattus norvegicus)", "experiment": "Ratio of ETA / ETB was determined; 1/7"}, "[3]": {"system": "Endothelin receptor ET-A/ET-B (Rattus norvegicus)", "experiment": "Ratio of ETA / ETB was determined; 22/1"}}, "data": [{"molecule": "O=C(O)c1c(Cc2cc3c(cc2Cl)OCO3)c(-c2cccs2)nn1CC1CCCC(C(=O)O)C1", "note": "(stereo not drawn)", "values": [{"measurement": "IC50", "setting": "[1]", "result": 0.0099, "unit": "µM"}, {"measurement": "IC50", "setting": "Endothelin-1 receptor", "result": 0.0013, "unit": "µM"}, {"measurement": "Ratio", "setting": "[2]", "result": 7}]}, {"molecule": "O=C(O)COc1ccccc1Cn1nc(-c2ccccc2)c(Cc2cc3c(cc2Cl)OCO3)c1C(=O)O", "values": [{"measurement": "IC50", "setting": "[1]", "result": 0.0033, "unit": "µM"}, {"measurement": "IC50", "setting": "Endothelin-1 receptor", "result": 0.059, "unit": "µM"}]}, {"molecule": "O=C(O)c1c(Cc2cc3c(cc2Cl)OCO3)c(-c2ccco2)nn1CC1CCCCC1", "values": [{"measurement": "IC50", "setting": "[1]", "result": 0.0098, "unit": "µM"}, {"measurement": "IC50", "setting": "Endothelin-1 receptor", "result": 0.0013, "unit": "µM"}]}, {"molecule": "O=C(O)COC1CCCCC1Cn1nc(-c2ccccc2)c(Cc2cc3c(cc2Cl)OCO3)c1C(=O)O", "note": "(stereo not drawn)", "values": [{"measurement": "IC50", "setting": "[1]", "result": 0.0032, "unit": "µM"}, {"measurement": "IC50", "setting": "Endothelin-1 receptor", "result": 0.0205, "unit": "µM"}]}, {"molecule": "O=C(O)c1c(Cc2cc3c(cc2Cl)OCO3)c(-c2ccccc2)nn1CC12CC3CC(CC(C3)C1)C2", "values": [{"measurement": "IC50", "setting": "[1]", "result": 0.0049, "unit": "µM"}, {"measurement": "IC50", "setting": "Endothelin-1 receptor", "result": 0.0034, "unit": "µM"}]}, {"molecule": "COc1ccc(Cn2nc(-c3ccccc3)c(Cc3cc4c(cc3Cl)OCO4)c2C(=O)O)c(OCC(=O)O)c1", "values": [{"measurement": "IC50", "setting": "[1]", "result": 0.004, "unit": "µM"}, {"measurement": "IC50", "setting": "Endothelin-1 receptor", "result": 0.089, "unit": "µM"}, {"measurement": "Ratio", "setting": "[3]", "result": 22}]}, {"molecule": "O=C(O)c1c(Cc2cc3c(cc2Cl)OCO3)c(-c2cccs2)nn1CC1CCCCC1", "values": [{"measurement": "IC50", "setting": "[1]", "result": 0.0017, "unit": "µM"}, {"measurement": "IC50", "setting": "Endothelin-1 receptor", "result": 0.0011, "unit": "µM"}]}, {"molecule": "O=C(O)c1c(Cc2cc3c(cc2Cl)OCO3)c(-c2ccccc2)nn1C1CCCCC1", "values": [{"measurement": "IC50", "setting": "[1]", "result": 0.131, "unit": "µM"}, {"measurement": "IC50", "setting": "Endothelin-1 receptor", "result": 0.226, "unit": "µM"}]}, {"molecule": "O=C(O)c1c(Cc2cc3c(cc2Cl)OCO3)c(-c2ccccc2)nn1Cc1cccc(Cl)c1", "values": [{"measurement": "IC50", "setting": "[1]", "result": 0.011, "unit": "µM"}, {"measurement": "IC50", "setting": "Endothelin-1 receptor", "result": 0.017, "unit": "µM"}]}, {"molecule": "COc1ccc(Cn2nc(-c3cccs3)c(Cc3cc4c(cc3Cl)OCO4)c2C(=O)O)c(OCC(=O)O)c1", "values": [{"measurement": "IC50", "setting": "[1]", "result": 0.0086, "unit": "µM"}, {"measurement": "IC50", "setting": "Endothelin-1 receptor", "result": 0.0149, "unit": "µM"}]}, {"molecule": "O=C(O)c1c(Cc2cc3c(cc2Cl)OCO3)c(-c2ccccc2)nn1CC1CCCC(C(=O)O)C1", "note": "(stereo not drawn)", "values": [{"measurement": "IC50", "setting": "[1]", "result": 0.0148, "unit": "µM"}, {"measurement": "IC50", "setting": "Endothelin-1 receptor", "result": 0.0025, "unit": "µM"}]}, {"molecule": "O=C(O)c1cc2c(c(Cn3nc(-c4ccccc4)c(Cc4cc5c(cc4Cl)OCO5)c3C(=O)O)c1)OCOC2", "values": [{"measurement": "IC50", "setting": "[1]", "result": 0.044, "unit": "µM"}, {"measurement": "IC50", "setting": "Endothelin-1 receptor", "result": 0.0025, "unit": "µM"}]}, {"molecule": "O=C(O)c1c(Cc2cc3c(cc2Cl)OCO3)c(-c2ccccc2)nn1CC1OCCO1", "values": [{"measurement": "IC50", "setting": "[1]", "result": 0.953, "unit": "µM"}, {"measurement": "IC50", "setting": "Endothelin-1 receptor", "result": 0.07, "unit": "µM"}]}, {"molecule": "O=C(O)c1c(Cc2cc3c(cc2Cl)OCO3)c(-c2ccccn2)nn1CC1CCCCC1", "values": [{"measurement": "IC50", "setting": "[1]", "result": 0.0034, "unit": "µM"}, {"measurement": "IC50", "setting": "Endothelin-1 receptor", "result": 0.0047, "unit": "µM"}]}, {"molecule": "O=C(O)c1ccc(Cn2nc(-c3ccccc3)c(Cc3cc4c(cc3Cl)OCO4)c2C(=O)O)cc1", "values": [{"measurement": "IC50", "setting": "[1]", "result": 2.04, "unit": "µM"}, {"measurement": "IC50", "setting": "Endothelin-1 receptor", "result": 0.011, "unit": "µM"}]}, {"molecule": "O=C(O)c1c(Cc2cc3c(cc2Cl)OCO3)c(-c2ccccc2)nn1CC1CCCCC1", "values": [{"measurement": "IC50", "setting": "[1]", "result": 0.0026, "unit": "µM"}, {"measurement": "IC50", "setting": "Endothelin-1 receptor", "result": 0.0036, "unit": "µM"}]}, {"molecule": "O=C(O)c1c(Cc2cc3c(cc2Cl)OCO3)c(-c2cccnc2)nn1CC1CCCCC1", "values": [{"measurement": "IC50", "setting": "[1]", "result": 0.0063, "unit": "µM"}, {"measurement": "IC50", "setting": "Endothelin-1 receptor", "result": 0.0178, "unit": "µM"}]}, {"molecule": "CCC(CC)Cn1nc(-c2ccccc2)c(Cc2cc3c(cc2Cl)OCO3)c1C(=O)O", "values": [{"measurement": "IC50", "setting": "[1]", "result": 0.031, "unit": "µM"}, {"measurement": "IC50", "setting": "Endothelin-1 receptor", "result": 0.015, "unit": "µM"}]}, {"molecule": "O=C(O)c1c(Cc2cc3c(cc2Cl)OCO3)c(-c2ccccc2)nn1Cc1ccc(Cl)c(Cl)c1", "values": [{"measurement": "IC50", "setting": "[1]", "result": 0.026, "unit": "µM"}, {"measurement": "IC50", "setting": "Endothelin-1 receptor", "result": 0.034, "unit": "µM"}]}, {"molecule": "O=C(O)c1cc(Cn2nc(-c3ccccc3)c(Cc3cc4c(cc3Cl)OCO4)c2C(=O)O)on1", "values": [{"measurement": "IC50", "setting": "[1]", "result": 0.44, "unit": "µM"}, {"measurement": "IC50", "setting": "Endothelin-1 receptor", "result": 0.079, "unit": "µM"}]}, {"molecule": "O=C(O)c1c(Cc2cc3c(cc2Cl)OCO3)c(-c2ccccc2)nn1CC1CCC(C(=O)O)CC1", "note": "(stereo not drawn)", "values": [{"measurement": "IC50", "setting": "[1]", "result": 0.81, "unit": "µM"}, {"measurement": "IC50", "setting": "Endothelin-1 receptor", "result": 0.0049, "unit": "µM"}]}, {"molecule": "O=C(O)c1c(Cc2cc3c(cc2Cl)OCO3)c(-c2cccs2)nn1CC1CCC(C(=O)O)CC1", "note": "(stereo not drawn)", "values": [{"measurement": "IC50", "setting": "[1]", "result": 0.825, "unit": "µM"}, {"measurement": "IC50", "setting": "Endothelin-1 receptor", "result": 0.00081, "unit": "µM"}]}, {"molecule": "COc1ccc(-c2nn(CC3CCCCC3)c(C(=O)O)c2Cc2cc3c(cc2Cl)OCO3)cc1", "values": [{"measurement": "IC50", "setting": "[1]", "result": 0.178, "unit": "µM"}]}, {"molecule": "O=C(O)COc1ccccc1Cn1nc(-c2cccs2)c(Cc2cc3c(cc2Cl)OCO3)c1C(=O)O", "values": [{"measurement": "IC50", "setting": "[1]", "result": 0.0046, "unit": "µM"}, {"measurement": "IC50", "setting": "Endothelin-1 receptor", "result": 0.0283, "unit": "µM"}]}, {"molecule": "COc1cc(Cn2nc(-c3ccccc3)c(Cc3cc4c(cc3Cl)OCO4)c2C(=O)O)cc(OC)c1", "values": [{"measurement": "IC50", "setting": "[1]", "result": 0.0097, "unit": "µM"}, {"measurement": "IC50", "setting": "Endothelin-1 receptor", "result": 0.028, "unit": "µM"}]}, {"molecule": "O=C(O)c1c(Cc2cc3c(cc2Cl)OCO3)c(-c2ccsc2)nn1CC1CCCCC1", "values": [{"measurement": "IC50", "setting": "[1]", "result": 0.0032, "unit": "µM"}, {"measurement": "IC50", "setting": "Endothelin-1 receptor", "result": 0.0011, "unit": "µM"}]}]}
